In the OPERA property sets (Mansouri et al. 2018):
In brackets after ≈: the same amount, converted by molar mass.

Details: not given

In order of rising logP:
1. NC(=O)CC[C@H](N)C(=O)O  -3.64
2. CC[N+](CC)(CC)CC.[Cl-]  -3.15
3. CN1C(=O)C(O)CC1c1cccnc1 (stereo not drawn)  -1.45
4. CC(=O)Oc1ccc(CC(N)C(=O)O)cc1 (stereo not drawn)  -1.33
5. O=CNc1nc(-c2ccc([N+](=O)[O-])o2)cs1  -1.14
6. N#CCCC#N  -0.99
7. C=COCCn1cnc2[nH]c(=O)n(C)c(=N)c21  -0.78
8. CCOP(=O)(CN(CCO)CCO)OCC  -0.72
9. Cn1ccc(=O)c(O)c1  -0.7
10. C=COCCn1cnc2c(=N)n(C)c(=O)[nH]c21  -0.24
11. CC(=O)OCn1cc2c(=O)n(COC(C)=O)cnc2n1  -0.2
12. OC(CNC1COCCC1Br)Cn1ccnc1 (stereo not drawn)  -0.17
13. CC1CCC(=O)N1 (stereo not drawn)  -0.1
14. CC1CCC(=O)N1C (stereo not drawn)  -0.07
15. CC(C)n1ccc(=O)c(O)c1  -0.02
16. O=[N+]([O-])c1cncn1CCN1CCOCC1  0.07
17. Cc1nc2c(N)ncnc2n1C1OC(CO)CC1F (stereo not drawn)  0.1
18. CCNC(=O)CCC(NS(=O)(=O)c1ccccc1)C(=O)O (stereo not drawn)  0.15
19. NCCc1nccs1  0.16
20. Cc1cc(C)nc(NS(=O)(=O)c2ccc(N)cc2)n1  0.19
21. COC1=CC(=O)C(OC)=C(OC)C1=O  0.22
22. CCC(=O)n1ncc2c(O)ncnc21  0.3
23. Clc1cccc(O[Si]23OCCN(CCO2)CCO3)c1  0.46
24. NS(=O)(=O)c1nc2ccc(OCCO)cc2s1  0.59
25. Clc1ccc(O[Si]23OCCN(CCO2)CCO3)cc1  0.6
26. CCOC1OC2OC3(C)CCC4C(C)C(OC5OC(C(=O)O)C(O)C(O)C5O)CC(C1C)C24OO3 (stereo not drawn)  0.61
27. CN(CCN)S(=O)(=O)c1ccc(C(C)(C)[N+](=O)[O-])c([N+](=O)[O-])c1  0.65
28. Nc1ccc([N+](=O)[O-])cn1  0.65
29. Cc1cnc2c(C(=O)O)c(Cl)ccc2c1  0.78
30. BrCC1CO1 (stereo not drawn)  0.85
31. Nc1ccc(Cl)c(N)c1  0.85
32. CC(=O)Nc1ccc2nc(S(N)(=O)=O)sc2c1  0.86
33. N=C(N)NN=Cc1ccc([N+](=O)[O-])cc1  0.87
34. CC(C)(C)NCC(O)c1cc(O)cc(O)c1 (stereo not drawn)  0.9
35. c1ccc(Cn2cncn2)cc1  0.92
36. CCOC1OC2OC3(C)CCC4C(COC5OC(C(=O)O)C(O)C(O)C5O)CCC(C1C)C24OO3 (stereo not drawn)  1.05
37. CC1CCC2C(C)C(OC3OC(C(=O)O)C(O)C(O)C3O)OC3OC4(C)CCC1C32OO4 (stereo not drawn)  1.08
38. CS/C(C)=N/O  1.12
39. CCN1CCC(CNC(=O)c2cc(S(=O)(=O)CC)ccc2OC)C1 (stereo not drawn)  1.31
40. N#CC(C#N)=Cc1ccco1  1.4
41. CN1CC=C(c2cccc(N)c2)CC1  1.47
42. CC(C)CCOC(=O)c1cc(=O)[nH]c(=O)[nH]1  1.48
43. CC(C)OC(C)C  1.52
44. Cc1ccccc1CCN  1.6
45. CC(C)(O)C(=O)Nc1ccc([N+](=O)[O-])cc1  1.61
46. C[C@H](CCC(=O)NCC(=O)O)[C@H]1CC[C@H]2[C@@H]3[C@H](O)C[C@@H]4C[C@H](O)CC[C@]4(C)[C@H]3C[C@H](O)[C@]12C  1.65
47. O=C(O)CC[Se]Cc1ccccc1  1.67
48. Cc1nc(N)nc(C(Cl)(Cl)Cl)n1  1.77
49. OCc1ccccc1Cl  1.77
50. COc1cc([N+](=O)[O-])c2ncccc2c1  1.87
51. CC(=O)Oc1ccc(NC(=O)C(Cl)Cl)cc1  1.9
52. Cc1c(CNc2ccccc2)cnc2nc(N)nc(N)c12  2.02
53. Cc1ccc(C=C(C#N)C#N)o1  2.03
54. CN1C(=O)CC(=O)N(c2ccccc2)c2cc(Cl)ccc21  2.12
55. CCOC(=O)CCn1nc2ccccc2n1  2.12
56. Nc1ccc([N+](=O)[O-])cc1Cl  2.14
57. COc1ccc(CNC(=O)C(=O)c2c[nH]c3ccc([N+](=O)[O-])cc23)cc1  2.17
58. Cc1ccc(OCCN(C)C)cc1  2.17
59. O=C(O)Cc1ccccc1I  2.33
60. COC(=O)c1cc2ccccc2o1  2.53
61. O=C(Nc1ccc(Cl)cc1)c1cc([N+](=O)[O-])ccc1O  2.54
62. CCC/N=C(N)/N=C(\N)Nc1ccc(Cl)cc1  2.63
63. Cc1cccc(C)c1C#[N+][O-]  2.74
64. NS(=O)(=O)c1nn2c(=Nc3ccc(F)cc3)snc2s1  2.81
65. CCC1(C2=CCCCCC2)C(=O)NC(=O)N(C)C1=O (stereo not drawn)  2.82
66. CCOC(=O)C1=C(C)NC(C)=C(C(=O)OC)C1c1cccc([N+](=O)[O-])c1 (stereo not drawn)  2.88
67. CCOC(=O)COc1cccc2ccccc12  2.9
68. Cc1ccc([N+](=O)[O-])cc1C  2.91
69. N#Cc1cc(-c2ccncc2)cnc1N1CCCC1  2.95
70. COP(=S)(OC)Oc1ccccc1  3.03
71. CCC(C)C(NC(=O)c1cn(CC)c2nc(C)ccc2c1=O)C(=O)OC (stereo not drawn)  3.15
72. CCN1CC=C(c2ccccc2)CC1  3.18
73. CC(C)CC(=O)OCc1ccccc1  3.26
74. CCOC(C(=O)OCc1ccccc1)C(C)C (stereo not drawn)  3.29
75. CCCN(CCC)C1COc2c(O)cccc2C1 (stereo not drawn)  3.3
76. COc1ccc(-c2cc(C#N)c(Cl)nc2C)cc1  3.38
77. O=C(OCc1ccccc1)c1ccc(O)cc1  3.56
78. Cc1nc(NCc2ccccc2)nc(C(Cl)(Cl)Cl)n1  3.86
79. C=CCOc1ccccc1OCC(CNC(C)C)OC(=O)CCCC (stereo not drawn)  4
80. CCCN(CCOc1c(Cl)cc(Cl)cc1Cl)C(=O)n1ccnc1  4.1
81. C=Cc1cc(C)ccc1C  4.16
82. COc1cc(Cl)c(Cl)c(Cl)c1  4.22
83. C[C@H](CSC(=O)c1ccccc1)C(=O)N1C[C@@H](Sc2ccccc2)C[C@H]1C(=O)O  4.4
84. CC(C)(C)C1=CC(=O)C=C(C(C)(C)C)C1=O  4.42
85. CSc1nc(C(Cl)(Cl)Cl)nc(C(Cl)(Cl)Cl)n1  4.42
86. O=[N+]([O-])c1ccc2c(c1)-c1ccc([N+](=O)[O-])c3cccc-2c13  4.44
87. Brc1ccccc1-c1ccccc1  4.59
88. CC(C)(C)NSc1nc2ccccc2s1  4.67
89. Cc1ccc(C)c2c(C)cccc12  4.9
90. CC1=C(C(=O)OC(C)C)C(c2cccc([N+](=O)[O-])c2)C(C(=O)OC2CN(C(c3ccccc3)c3ccccc3)C2)=C(N)N1 (stereo not drawn)  5.18
91. COc1c(Cl)c(Cl)c(Cl)c(Cl)c1Cl  5.45
92. Brc1cc(Br)c(Br)c(-c2c(Br)c(Br)cc(Br)c2Br)c1Br  5.5
93. CCCCCCCCC  5.65
94. CC(=O)c1cc2c(cc1C)C(C)(C)C(C)CC2(C)C (stereo not drawn)  5.7
95. ClCC1(CCl)C2CC(Cl)(Cl)C1(C(Cl)Cl)CC2(Cl)Cl (stereo not drawn)  5.79
96. ClC1=C(Cl)C2(Cl)C(CBr)CC1(Cl)C2(Cl)Cl (stereo not drawn)  5.9
97. ClCC1(C(Cl)Cl)C2CC(Cl)(Cl)C1(C(Cl)Cl)C(Cl)C2Cl (stereo not drawn)  5.96
98. c1ccc2cc3c(cc2c1)-c1cccc2cccc-3c12  6.11
99. ClCC1(CCl)C2C(Cl)C(Cl)(Cl)C1(C(Cl)Cl)CC2(Cl)Cl (stereo not drawn)  6.26
100. ClC1(Cl)C2(Cl)C3(Cl)C4(Cl)C(Cl)(Cl)C5(Cl)C3(Cl)C1(Cl)C5(Cl)C24Cl (stereo not drawn)  6.89
101. Clc1cc(Cl)c(-c2ccc(Cl)c(Cl)c2Cl)cc1Cl  7.44

In order of falling solubility:
1. Cc1ncc(CO)c(C=O)c1O.Cl  2460 mM
2. CC(C)CC=O  163 mM (≈ 14000 µg/mL)
3. O=P(OC(Cl)CCCl)(OC(Cl)CCCl)OC(Cl)CCCl (stereo not drawn)  0.232 mM (≈ 100 µg/mL)
4. CC(=O)c1cc2c(cc1C)C(C)(C)C(C)CC2(C)C (stereo not drawn)  0.00484 mM (≈ 1.25 µg/mL)

Same assay, conditions: 20 °C

In order of rising solubility:
1. CCCC(CCC)C(=O)O  13.9 mM (≈ 2000 µg/mL)
2. CCC(CC)C(=O)O  155 mM (≈ 18000 µg/mL)

Same assay, conditions: 22.0 °C

`CCCCCCl` gave a log10 OH rate constant (cm³/molecule/s) of -11.5.

Same assay, conditions: 23.0 °C

In order of rising log10 OH rate constant (cm³/molecule/s):
1. CCOC(=O)C(C)O (stereo not drawn)  -11.4
2. COC(OC)OC  -11.2
3. CC1=CC[C@@H]2[C@H]3[C@@H](C(C)C)CC[C@]2(C)[C@@H]13  -10
4. C=CC(C)(O)CCC=C(C)C (stereo not drawn)  -9.8

Same assay, conditions: 24 °C

For `N#CSCSc1nc2ccccc2s1`, the solubility was 0.524 mM (≈ 125 µg/mL).

Same assay, conditions: 24.0 °C

`C[Si](C)(C)C` showed a log10 OH rate constant (cm³/molecule/s) of -12.

Same assay, conditions: 25 °C

In order of falling solubility:
1. CCOC  832 mM (≈ 50000 µg/mL)
2. c1ccc2cnncc2c1  384 mM (≈ 50000 µg/mL)
3. CC=CC#N  373 mM (≈ 25000 µg/mL)
4. OCC(Br)CBr (stereo not drawn)  239 mM (≈ 52000 µg/mL)
5. C#CCBr  125 mM (≈ 14900 µg/mL)
6. O=C(O)c1ccc(C(=O)O)c(C(=O)O)c1  99.9 mM (≈ 21000 µg/mL)
7. Cc1cccc(C)c1N  68 mM (≈ 8240 µg/mL)
8. O=c1n(Cl)c(=O)n(Cl)c(=O)n1Cl  51.6 mM (≈ 12000 µg/mL)
9. CCF  44.9 mM (≈ 2160 µg/mL)
10. Oc1cc(Cl)cc(Cl)c1  27.6 mM (≈ 4500 µg/mL)
11. c1ccc(OCC2CO2)cc1 (stereo not drawn)  16 mM (≈ 2400 µg/mL)
12. CC(Cl)C(Cl)Cl (stereo not drawn)  12.9 mM (≈ 1900 µg/mL)
13. FC(Cl)C(F)(F)F (stereo not drawn)  11 mM (≈ 1500 µg/mL)
14. CCCCCOC(=O)CC  5.62 mM (≈ 810 µg/mL)
15. C=C(C)C(=C)C  3.97 mM (≈ 327 µg/mL)
16. CCCCCCCCCCN  3.5 mM (≈ 550 µg/mL)
17. Nc1cc(Cl)cc(C(=O)O)c1Cl  3.4 mM (≈ 700 µg/mL)
18. C[C@]12C[C@H](O)[C@H]3[C@@H](CCC4=CC(=O)CC[C@@]43C)[C@@H]1CC[C@@H]2C(=O)CO  0.574 mM (≈ 199 µg/mL)
19. Oc1ccc(Cl)c2cccnc12  0.106 mM (≈ 19 µg/mL)
20. Brc1ccc(I)cc1  0.0312 mM (≈ 8.82 µg/mL)
21. CN(C)c1ccc(N=Nc2ccc(N)cc2)cc1  0.0255 mM (≈ 6.12 µg/mL)
22. O=C1c2ccccc2C(=O)c2c(O)c(O)cc(O)c21  0.025 mM (≈ 6.4 µg/mL)
23. Clc1ccc(/N=N/c2ccccc2)cc1  0.00198 mM (≈ 0.43 µg/mL)
24. CCCCCC1CCCC1  0.00082 mM (≈ 0.115 µg/mL)
25. Nc1ccc2c(c1)C(=O)c1ccccc1C2=O  0.00073 mM (≈ 0.163 µg/mL)
26. CC(C)CCCCCOC(=O)c1ccccc1C(=O)OCCCCCC(C)C  0.00023 mM (≈ 0.09 µg/mL)

Same assay, conditions: 25.0 °C

In order of falling log10 OH rate constant (cm³/molecule/s):
1. c1ccc(Nc2ccccc2)cc1  -9.71
2. CCSC(=O)N(CC)C1CCCCC1  -10.5
3. CC1(C)C2CCC(=O)C1C2 (stereo not drawn)  -10.8
4. CCCCCC(C)=O  -10.9
5. CC(=O)O[C@@H]1CC2CCC1(C)C2(C)C (stereo partly drawn)  -10.9
6. CC(C)(C)N  -10.9
7. CCC(CC)(CC)CC  -11.3
8. O=C1C=CC(=O)c2ccccc21  -11.5
9. COc1ccc([N+](=O)[O-])cc1  -11.6
10. CC(C)[N+](=O)[O-]  -12.6
11. OCC(F)(F)C(F)(F)F  -13
12. FC(F)(F)CC(F)(F)F  -15

Same assay, conditions: 27.0 °C

For `O=Cc1ccco1`, the log10 OH rate constant (cm³/molecule/s) was -10.5.
